Measured values published in ChEMBL document CHEMBL1201862, “PubChem BioAssay data set” (2004).
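Dose response: 5 concentrations. Exposure: 48 h. Format: 96-well plates. Endpoint: linear interpolation; highest concentration if not reached. GI50 marks 50% less growth.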 Activity calls are given as the source filed them. Cut-off read from the data, not from the text of the source: active = GI50 up to about 1.1 µM and inactive = higher.

Key:
Test in all cases: NCI tumour cell line growth inhibition, 48 h
T47D = test system: T47D
RXF 631 = test system: RXF 631
HOP-18 = test system: HOP-18
DLD-1 = test system: DLD-1
LXFL 529 = test system: LXFL 529
M19-MEL = test system: M19-MEL
SNB-78 = test system: SNB-78
KM-20L2 = test system: KM-20L2
XF498 = test system: XF498

| Structure (SMILES) | GI50 (T47D) | GI50 (DLD-1) | GI50 (M19-MEL) | GI50 (SNB-78) | also measured |
| --- | --- | --- | --- | --- | --- |
| Nc1nc(N)c(N=Nc2ccc([As](=O)(O)O)c(O)c2)c(N)n1 | > 25.2 µM (inactive) | – | – | – | – |
| CC(C)[Si]1(C(C)C)OCC2OC(n3cnc4c(N)ncnc43)C(N)C2O[Si](C(C)C)(C(C)C)O1 (stereo not drawn) | 8.15 µM (inactive) | – | – | – | – |
| CSc1ccc(/C=C/c2ccnc3ccccc23)cc1 | 5.58 µM (inactive) | – | – | – | – |
| O=c1[nH]ccc2c1ccn2C1CC(O)C(CO)O1 (stereo not drawn) | – | > 100 µM (inactive) | > 100 µM (inactive) | > 100 µM (inactive) | GI50 (RXF 631): > 100 µM (inactive); GI50 (HOP-18): > 100 µM (inactive); GI50 (LXFL 529): > 100 µM (inactive) |
| C[C@]12CC(c3ccccc3O1)C(C(=O)Nc1nc(C34CC5CC(CC(C5)C3)C4)cs1)C(=O)N2 (stereo partly drawn) | > 100 µM (inactive) | – | – | – | – |
| O=c1ccn(-c2ccccn2)c(=O)n1-c1ccccn1 | > 100 µM (inactive) | – | – | – | – |
| CN(/N=C/C=N/N(C)C1=NCCCCN1)C1=NCCCCN1 | > 100 µM (inactive) | – | – | – | – |
| CC(=O)Nc1ccc(-c2nnc(SCC(=O)Nc3ccc(Cl)cc3Cl)o2)cc1 | – | 35.1 µM (inactive) | 51.9 µM (inactive) | > 100 µM (inactive) | GI50 (HOP-18): 55.3 µM (inactive); GI50 (LXFL 529): 19.3 µM (inactive); GI50 (KM-20L2): 42.7 µM (inactive) |
| COC(OC)c1cc2c(cc1C(=O)[C@@]13CCC[C@@H]1NC(=O)O3)OCO2 | – | 79.6 µM (inactive) | > 100 µM (inactive) | > 100 µM (inactive) | GI50 (XF498): 84.5 µM (inactive) |
| Cn1nc2ccccc2cc1=O | – | > 100 µM (inactive) | > 100 µM (inactive) | > 100 µM (inactive) | GI50 (RXF 631): > 100 µM (inactive); GI50 (HOP-18): > 100 µM (inactive); GI50 (XF498): > 100 µM (inactive); GI50 (KM-20L2): > 100 µM (inactive) |
| O=C(O)CCc1ccc2c(c1)C(=O)CC2 | 93.1 µM (inactive) | – | – | – | – |
| C#CCn1ncc2c(SC)ncnc21 | 19 µM (inactive) | – | – | – | – |
| O=C1OC2(CCCCC2)C(Oc2ccc(Cl)cc2)=C1F | 37.2 µM (inactive) | – | – | – | – |
| c1ccc2[nH]c(CNc3ccc(C4C[Se]N=N4)cc3)nc2c1 (stereo not drawn) | – | > 100 µM (inactive) | 41.3 µM (inactive) | – | GI50 (HOP-18): > 100 µM (inactive); GI50 (LXFL 529): 18.7 µM (inactive) |
| CCOC(=O)c1sc2nc(SC)nc3c2c1N=CN3c1ccc(Br)cc1 | > 100 µM (inactive) | – | – | – | – |
| O=c1[nH]c2ccccc2c(=O)c2cc3ccccc3cc12 | > 100 µM (inactive) | – | – | – | – |

| Structure (SMILES) | GI50 (T47D) | GI50 (DLD-1) | GI50 (M19-MEL) | GI50 (SNB-78) | also measured |
| --- | --- | --- | --- | --- | --- |
| O=C(O)CC[C@H](NC(=O)c1ccc(-n2nc3ccc(=O)cc-3[nH]c2=O)cc1)C(=O)O | – | > 100 µM (inactive) | > 100 µM (inactive) | > 100 µM (inactive) | GI50 (RXF 631): > 100 µM (inactive); GI50 (HOP-18): > 100 µM (inactive); GI50 (LXFL 529): > 100 µM (inactive); GI50 (KM-20L2): > 100 µM (inactive) |
| CC(=O)SC(C[N+](=O)[O-])c1ccc2c(c1)OCO2 (stereo not drawn) | 17.1 µM (inactive) | – | – | – | – |
| O=C1C=C(Nc2ccccc2C(=O)CC(=O)C(=O)Nc2cccc([N+](=O)[O-])c2)c2ccccc2C1=O | – | 21.9 µM (inactive) | 4.45 µM (inactive) | 49.1 µM (inactive) | GI50 (RXF 631): > 100 µM (inactive); GI50 (LXFL 529): 32.4 µM (inactive); GI50 (XF498): 19.6 µM (inactive); GI50 (KM-20L2): > 100 µM (inactive) |
| COc1cc2c(cc1OCCCCCCCCCCN1C(=O)c3cccc4cccc(c34)C1=O)N=C[C@@H]1CCCN1C2=O | 4.41 µM (inactive) | – | – | – | – |
| COc1ccc(/C(=N/NC(N)=O)C(c2ccc(OC)cc2)C2C(=O)Oc3ccccc32)cc1 (stereo not drawn) | – | > 100 µM (inactive) | > 100 µM (inactive) | > 100 µM (inactive) | GI50 (RXF 631): > 100 µM (inactive); GI50 (LXFL 529): > 100 µM (inactive); GI50 (XF498): > 100 µM (inactive); GI50 (KM-20L2): > 100 µM (inactive) |
| CC1(C)OC[C@@]2([C@@H]3CC[C@@H](C3)C2(C)C)N1O | > 100 µM (inactive) | – | – | – | – |
| O=C1N2CCC[C@H]2CS1(=O)=O | 13.5 µM (inactive) | – | – | – | – |
| O=[N+]([O-])c1cccc(/N=C2\c3ccccc3CN2c2cccc([N+](=O)[O-])c2)c1 | > 100 µM (inactive) | – | – | – | – |
| CSc1c(C#N)c(S)n(-c2ccc(Cl)cc2)c(=O)c1C#N | 47.5 µM (inactive) | – | – | – | – |
| CCOc1ccc(NC(=O)CC2Sc3ccccc3NC2=O)cc1 (stereo not drawn) | – | 88.5 µM (inactive) | > 100 µM (inactive) | 57.1 µM (inactive) | GI50 (HOP-18): 20.5 µM (inactive); GI50 (LXFL 529): > 100 µM (inactive); GI50 (KM-20L2): > 100 µM (inactive) |
| COC(=O)c1ccc(C(=O)NC(Cc2ccc(Oc3cc(CC(NC(=O)c4ccccc4C(=O)OC)C(=O)OC)ccc3OC)cc2)C(=O)OC)cc1 (stereo not drawn) | > 100 µM (inactive) | – | – | – | – |
| CC(NC1=CC(=O)c2ncccc2C1=O)C(O)c1ccccc1 (stereo not drawn) | 21.5 µM (inactive) | – | – | – | – |
| COC(=O)N/N=C(\C)CC(=O)Nc1ccc(Cl)cc1 | – | > 100 µM (inactive) | > 100 µM (inactive) | > 100 µM (inactive) | GI50 (RXF 631): > 100 µM (inactive); GI50 (LXFL 529): > 100 µM (inactive); GI50 (XF498): > 100 µM (inactive); GI50 (KM-20L2): > 100 µM (inactive) |
| Cc1nc(C(N)=S)sc1C(=O)/C=C/c1cccc(O)c1 | – | > 100 µM (inactive) | > 100 µM (inactive) | > 100 µM (inactive) | GI50 (RXF 631): > 100 µM (inactive); GI50 (HOP-18): > 100 µM (inactive); GI50 (KM-20L2): > 100 µM (inactive) |
| CS(=O)(=O)NC12CCC(c3ccccc31)c1ccccc12 | > 100 µM (inactive) | – | – | – | – |
| CC1(C)CC(=O)c2c(-c3ccc(Cl)cc3)c(C#N)c(=S)n(C3OC(CO)C(O)C(O)C3O)c2C1 (stereo not drawn) | 18.6 µM (inactive) | – | – | – | – |
